From patent US4241184A, “Secondary alcohol dehydrogenase enzyme and use thereof” (priority 1979, dated 1980) come the findings set out here.

Read-outs that look alike come from different tables or passages of the source.

Assay [1] has as its system secondary alcohol dehydrogenase (SADH). The experiment in a line: Purified secondary alcohol dehydrogenase activity (formation of reduced NAD). The class given is biochemical, Pseudomonas sp. ATCC 21439. The protocol:
Secondary alcohol dehydrogenase (SADH) from an obligate methanol utilizer, Pseudomonas sp. ATCC 21439 was purified as follows. […] 0.05 M sodium phosphate buffer, pH 7.0 with 0.5 mM dithiothretol (buffer A) and were disrupted sonically (5×1 min.). The crude extract was separated by centrifugation. The crude extract was heat-treated at 50° C. in a water bath for 10 minutes. The resulting precipitate was removed by centrifugation. To the supernatant solution, 25 ml of protamine sulfate solution (2% solution in 0.1 M Tris base) was added dropwise with continuous stirring. After standing for 30 minutes, the extract was centrifuged. The supernatant solution was fractionated with solid ammonium sulfate. The material precipitating between 30 and 60% saturation was collected and was dialized overnight against buffer A. The The dialized material was applied to a DEAE-cellulose column (3 cm by 35 cm) that had been equilibrated with buffer A. The secondary alcohol dehydrogenase activity was eluted in the void volume. This DEAE-cellulose eluate was concentrated by ammonium sulfate fractionation. Material precipitating between 30 and 50% ammonium sulfate saturation was collected by centrifugation and dialyzed overnight against A. This fraction was further washed and filtered through an Amicon unit with XM 50 membrane. The concentrated fraction (6 ml) inside the Amicon unit was applied to an Affi-Gel Blue column (0.8 cm×18 cm) which had been equilibrated with buffer A for affinity chromatography. The column was washed overnight with buffer A (0.18 ml./min.) and then was eluted with buffer A containing 5 mM NAD. Each 1 ml. fraction was collected.
The purified secondary alcohol dehydrogenase enzyme (SADH) may be used directly for converting C3 -C6 secondary alcohols to the corresponding methyl ketones by the procedures described above; however, a source of NAD^+ must be added to the reaction medium. One can determine the NAD-linked secondary alcohol dehydrogenase activity with a fluorescence spectrophotometer (Perkin Elmer, Model MPF 44A) by following the formation of reduced NAD (Ex 340 nm, Em 460 nm). The assay system (3 ml.) will typically contain: sodium phosphate buffer pH 7.0, 150 μmol; NAD 1.0 μmol; a given amount of enzyme preparation; and 20 μmol secondary alcohol. The reaction is started by the addition of secondary alcohol. One unit of SADH enzyme activity represents the reduction of one nmole NAD per minute.
The effect of metal-chelating agents and thioreagents on the activity of the purified SADH enzyme were studied. […] The possibility of ethanol or n-propanol as an inhibitor was studied.

The subject of assay [2] is secondary alcohol dehydrogenase. In words: Purified yeast secondary alcohol dehydrogenase: substrates, electron acceptors, inhibitors, stoichiometry. Type of assay: biochemical, Pichia sp. NRRL Y-11,328. On the procedure: Large scale cultures of Pichia sp. NRRL Y-11,328 were grown with aeration at 30° C. in a 14-liter New Brunswick f fermentor in a mineral salt medium containing methanol (0.4%, v/v) as the sole carbon source. The cells (200 g., wet weight) were suspended in […] sodium phosphate buffer, pH 7.0, containing 1 mM dithiothreitol (buffer A), and crude extracts were prepared as described previously. To the crude extracts, 18 ml. of protamine sulfate solution [2% solution in 0.1 M tris (hydroxymethyl) aminomethane (tris) base] was added dropwise with continuous stirring. After standing for 30 min., the extracts were centrifuged at 20,000×g. for 60 min. The supernatant solution was fractionated with solid ammonium sulfate. Extracts were brought to 50% of saturation with respect to ammonium sulfate by addition of 313 g. of the salt per liter of extract. Precipitated proteins was removed by centrifugation, and 137 g. of ammonium sulfate was added per liter of the supernatant liquid to bring it to 70% of saturation. Material precipitating between 50 and 70% of saturation was collected by centrifugation and dissolved in buffer A. This preparation was dialyzed overnight against buffer A, and the dialyzed material was applied to a DEAE-cellulose column (5×40 cm) that had been equilibrated with buffer A. The sample was washed with 200 ml. of buffer A and eluted with 2 liters of buffer A that contained NaCl in a linear gradient running from a concentration of 0 to 0.5 M. Fractions of 15 ml. were collected. Fractions containing secondary alcohol dehydrogenase activity were pooled and were termed DEAE-cellulose eluate. The DEAE-cellulose eluate was concentrated by ammonium sulfate fractionation.
Secondary alcohol dehydrogenase activity was measured spectrophotometrically at 340 nm with a NAD^+ as an electron acceptor. The reaction mixture, in a total 3.0 ml., contained 50 mM phosphate buffer, pH 8.0, 5μ moles NAD^+, crude extracts, and subtrate. The reactions were started by addition of 100 μl of 0.1 M substrate and the rate of NAD^+ reduction was measured. Protein concentration was determined by the method of Lowry et al.
The substrate specificity of the purified secondary alcohol dehydrogenase was examined spectrophotometrically.

The subject of assay [3] is P(40) particulate fraction of Methylosinus sp. (CRL-15, NRRL B-11,202). In words: Oxidation of n-alkenes and n-alkanes by P(40) particulate fraction. Type of assay: biochemical. As to conditions: substrate oxidized to its epoxide or alcohol, 30° C.
For assay [4], the system named is Methylosinus trichosporium OB3b (NRRL B-11,196). The experiment in a line: Effect of inhibitors on epoxidation of propylene and hydroxylation of methane, cell-containing enzyme preparation. The class given is cell-based. The following applies: NRRLB11, 1 h.
The test system of assay [5] is Methylobacterium organophilum (CRL 26, NRRL B-11,222). The assay is described as above. The class given is cell-based. As to conditions: NRRLB11, 1 h.
The test system of assay [6] is Methylococcus capsulatus (CRL Ml, NRRL B-11,219). Described as above. The class given is cell-based. As to conditions: Methylococcus capsulatus, NRRLB11, 1 h.
The mark [7] stands for this setting: examined spectrophotometrically.
Setting [8] is: purified SADH, each inhibitor 1 mM, measured spectrofluorometrically.
The mark [9] stands for this setting: read-out: % Inhibition, Epoxidation.
[10] abbreviates: read-out: % Inhibition, Hydroxylation.

Take `CCCO` [n-propanol]: the “% inhibition of SADH activity” value in assay [1] is “did not inhibit”. The “oxidation by the purified secondary alcohol dehydrogenase” value in assay [2] is listed as “not oxidized”. As to `CC(C)CO` [isobutanol], in assay [1] (2-butanol = 100%), the “relative percent rate of oxidation by SADH” value (“relative percent rate” below) is on record as “not oxidized”.

Consider `CC` [Ethane], for which, in assay [3], the “Rate of Product Formation” value is reported as 3.2 μ moles/hr/mg of protein.

With `C=O` [formaldehyde], the “relative percent rate” value in assay [1] is “not oxidized”. For `CCCCCO` [pentan-1-ol], the “oxidation by the purified secondary alcohol dehydrogenase” value in assay [2] (setting [7]) is “not oxidized”. Turning to `CCCCC(C)O` (stereo not drawn) [2-hexanol], in assay [1], the “substrate specificity of purified SADH” value is on record as “lower rate”. Also, the “relative percent rate” value in assay [1] (2-butanol = 100%) was 2%. For the same compound, the “oxidation by the purified secondary alcohol dehydrogenase” value in assay [2] (setting [7]) is “catalyzed the oxidation”. As to `CCCC(C)O` (stereo not drawn) [2-pentanol], in assay [1], the “substrate specificity of purified SADH” value was “lower rate”. The “relative percent rate” value in assay [1] (2-butanol = 100%) is recorded as 5%. In assay [2] (setting [7]), the “oxidation by the purified secondary alcohol dehydrogenase” value is reported as “catalyzed the oxidation”. Regarding `[Mn+2]` [Mn^++], the “% inhibition of SADH activity” value in assay [1] (setting [8]) came to 0%.

`O=[N+]([O-])[O-].[Ag+]` [silver nitrate]: in assay [2], the “inhibition of secondary alcohol dehydrogenase activity” value was “inhibited”.

Regarding `[Zn+2]` [Zn^++], the “% inhibition of SADH activity” value is 0% in assay [1] (setting [8]) and “did not stimulate” in assay [1] (purified SADH, each inhibitor 1 mM, measured spectrofluorometrically, listed as zinc). For the compound `C=CC=C` [Butadiene], the “Rate of Product Formation” value in assay [3] is 0.63 μ moles/hr/mg of protein. In the case of `[Mg+2]` [Mg^++], the “% inhibition of SADH activity” value in assay [1] (setting [8]) is given as 0%. Regarding `CC(O)CO` (stereo not drawn) [1,2-propandiol], in assay [2] (setting [7]), the “oxidation by the purified secondary alcohol dehydrogenase” value was “not oxidized”.

Regarding `[Fe+2]` [ferrous], the “% inhibition of SADH activity” value in assay [1] (setting [8]) is on record as 50%. For `CC=O` [acetaldehyde], in assay [1], the “substrate specificity of purified SADH” value is listed as “lower rate”. Further, the “relative percent rate” value in assay [1] (2-butanol = 100%) is reported as 4%.

`CC(O)CCO` (stereo not drawn) [butane 1,3-diol]: the “substrate specificity of purified SADH” value in assay [1] is given as “lower rate”. Further, the “relative percent rate” value in assay [1] (2-butanol = 100%) is on record as 2%. In assay [2] (setting [7]), the “oxidation by the purified secondary alcohol dehydrogenase” value is recorded as “not oxidized”. On to `C=CCC` [1-Butene], for which the “Rate of Product Formation” value in assay [3] was 2.18 μ moles/hr/mg of protein. In the case of `O=C(O)CCC(=O)O` [succinic acid], the “relative percent rate” value in assay [1] (2-butanol = 100%) is listed as “not oxidized”. Turning to `CO` [methanol], the “oxidation by the purified secondary alcohol dehydrogenase” value in assay [2] (setting [7]) is recorded as “not oxidized”. Turning to `CCN1C(=O)C=CC1=O` [N-ethylmalemide], the “% inhibition of SADH activity” value in assay [1] (setting [8]) is 6%; in assay [1] (purified SADH, each inhibitor 1 mM, measured spectrofluorometrically, listed as N-ethylmaleimide), “not inhibited”. For `[Co+2]` [Co^++], the “% inhibition of SADH activity” value in assay [1] (setting [8]) stood at 0%. `O=C(O)c1cc(SSc2ccc([N+](=O)[O-])c(C(=O)O)c2)ccc1[N+](=O)[O-]` [5,5'-dithiobis(2-nitrobenzoic acid)]: the “% inhibition of SADH activity” value in assay [1] (setting [8]) is 100%; in assay [1] (purified SADH, each inhibitor 1 mM, measured spectrofluorometrically, listed as 5,5'-dithiobis (2-nitrobenzoic acid)), “inhibited”. For cytochrome c, in assay [2], the “electron acceptor for the purified enzyme” value is “could not act as electron carrier”. As for `O=Cc1ccccc1` [benzaldehyde], in assay [1] (2-butanol = 100%), the “relative percent rate” value is reported as “not oxidized”. On to `[Fe+3]` [ferric], for which, in assay [1] (setting [8]), the “% inhibition of SADH activity” value was 35%. Regarding `N#C[S][Hg][S]C#N` [mercuric thiocyanate], the “inhibition of secondary alcohol dehydrogenase activity” value in assay [2] was “inhibited”. `C=C` [Ethylene]: in assay [3], the “Rate of Product Formation” value is reported as 1.27 μ moles/hr/mg of protein.

For `CC(O)C(C)O` (stereo not drawn) [butane 2,3-diol], the “substrate specificity of purified SADH” value in assay [1] is reported as “lower rate”. The “relative percent rate” value in assay [1] (2-butanol = 100%) worked out at 2.5%. Regarding `OC1CCCCC1` [cyclohexanol], the “substrate specificity of purified SADH” value in assay [1] was “lower rate”. For the same compound, the “relative percent rate” value in assay [1] (2-butanol = 100%) was determined as 4%. For `CCCCCCC(C)O` (stereo not drawn) [2-octanol], the “oxidation by the purified secondary alcohol dehydrogenase” value in assay [2] (setting [7]) is on record as “not oxidized”. As for `CCC(O)CO` (stereo not drawn) [butane 1,2-diol], the “relative percent rate” value in assay [1] (2-butanol = 100%) is given as “not oxidized”. The “oxidation by the purified secondary alcohol dehydrogenase” value in assay [2] (setting [7]) is reported as “not oxidized”. In the case of `CCO` [ethanol], the “% inhibition of SADH activity” value in assay [1] is “did not inhibit”. Further, the “oxidation by the purified secondary alcohol dehydrogenase” value in assay [2] is given as “not oxidized”. `Oc1ccccc1` [phenol]: the “relative percent rate” value in assay [1] is listed as “not oxidized”.

`c1c[nH]cn1` [Imidazole]: the inhibition at 1000 µM turned out to be 95% in assay [4] (setting [9]); 90% in assay [4] (setting [10]); 100% in assay [5] (setting [9]); 100% in assay [5] (setting [10]); 95% in assay [6] (setting [9]); 95% in assay [6] (setting [10]). Further, the “inhibition of secondary alcohol dehydrogenase activity” value in assay [2] was “strongly inhibited”. `[Ni+2]` [nickel]: in assay [1] (setting [8]), the “% inhibition of SADH activity” value turned out to be 20%. Consider `CC(C)O` [2-propanol], for which the “substrate specificity of purified SADH” value in assay [1] was “highest”. In addition, in assay [1] (2-butanol = 100%), the “relative percent rate” value came to 85%. Further, in assay [2], the “NAD^+ Reduced” value is 5.4 µmol and the Product formed stood at 5.5 µmol. The “oxidation by the purified secondary alcohol dehydrogenase” value in assay [2] (setting [7]) is recorded as “catalyzed the oxidation”. In the case of `[Cu+2]` [cupric], the “% inhibition of SADH activity” value in assay [1] (setting [8]) was found to be 25%. As for `CCCCO` [butan-1-ol], the “oxidation by the purified secondary alcohol dehydrogenase” value in assay [2] was “not oxidized”.

Consider `O=C(O)c1cc[c]([Hg+])cc1.[OH-]` [p-hydroxymercuribenzoate], for which, in assay [1] (setting [8]), the “% inhibition of SADH activity” value is given as 100%. For the same compound, the “inhibition of secondary alcohol dehydrogenase activity” value in assay [2] was “strongly inhibited”.

Take `CCCCCC(C)O` (stereo not drawn) [2-Heptanol]: the “oxidation by the purified secondary alcohol dehydrogenase” value in assay [2] (setting [7]) is given as “not oxidized”.
